According to patent US20250230193A1, “CYCLIC COMPOUND HAVING SELECTIVE KRAS INHIBITORY EFFECT ON HRAS AND NRAS” (CHUGAI SEIYAKU KABUSHIKI KAISHA, priority 2022, published 2025):
*1 amine or outer side, *2 acyl side, *3 side chain or, on linkers, in order; H or OH if unused. Where a SMILES comes first, the peptide text is derived from it. Bridges are numbered along the chain shown (N, C = ends). [ ]: non-standard residue; d: D form. The star is where a group is joined. hPhe(3,5-F2-4-CF3) = N[C@@H](CCc1cc(F)c(C(F)(F)F)c(F)c1)C(=O)O; hPhe(3-Cl-4-CF3) = N[C@@H](CCc1ccc(C(F)(F)F)c(Cl)c1)C(=O)O; X41 = Cc1ccc(C[C@@H](C(=O)[*:2])N(CCC(F)(F)F)[*:1])cc1; NPrPhe(4-CF3) = CCCN[C@@H](Cc1ccc(C(F)(F)F)cc1)C(=O)O; NMeGly(cPent) = CN[C@H](C(=O)O)C1CCCC1; Ac4c(3,3-F2) = NC1(C(=O)O)CC(F)(F)C1; NMeD = CN[C@@H](CC(=O)O)C(=O)O; NMeL = CN[C@@H](CC(C)C)C(=O)O; Morpholide = C1CN(*)CCO1; NMeA = CN[C@@H](C)C(=O)O; Ac5c = NC1(C(=O)O)CCCC1; Aze = O=C(O)[C@@H]1CCN1; Sar = CNCC(=O)O

Key:
[1] = biological target: GDP-bound NRAS wild-type protein (Homo sapiens, UniProt P01111); assay: Binding to NRAS by surface plasmon resonance (SPR), Single Cycle Kinetics; conditions: for NRAS/KRAS (ratio of KD value with respect to NRAS to KD value with respect to KRAS): GDP-bound NRAS wild-type vs GDP-bound KRAS wild-type
GDP-bound NRAS wild-type protein, sequence (P01111 whole entry): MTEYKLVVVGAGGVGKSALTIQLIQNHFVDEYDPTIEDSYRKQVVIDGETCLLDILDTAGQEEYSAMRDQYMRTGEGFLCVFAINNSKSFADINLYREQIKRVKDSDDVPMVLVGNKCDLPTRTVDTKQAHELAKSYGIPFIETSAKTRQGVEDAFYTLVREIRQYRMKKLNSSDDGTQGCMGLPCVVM

[2] = biological target: GDP-bound HRAS wild-type protein (Homo sapiens, UniProt P01112); assay: Binding to HRAS by surface plasmon resonance (SPR), Single Cycle Kinetics; conditions: for HRAS/KRAS (ratio of KD value with respect to HRAS to KD value with respect to KRAS): GDP-bound HRAS wild-type vs GDP-bound KRAS wild-type
GDP-bound HRAS wild-type protein, sequence (P01112 whole entry): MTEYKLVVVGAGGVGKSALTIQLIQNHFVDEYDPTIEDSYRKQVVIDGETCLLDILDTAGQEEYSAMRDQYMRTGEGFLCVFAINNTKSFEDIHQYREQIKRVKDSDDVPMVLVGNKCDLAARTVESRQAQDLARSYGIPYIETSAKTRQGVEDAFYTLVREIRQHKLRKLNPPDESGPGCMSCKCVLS

## CCCN1C(=O)CN(C)C(=O)CNC(=O)[C@H]([C@@H](C)CC)NC(=O)[C@H](CC(C)C)N(C)C(=O)C[C@@H](C(=O)N2CCOCC2)N(C)C(=O)[C@H](C2CCCC2)N(C)C(=O)C2(CCCC2)NC(=O)[C@@H]2CCCN2C(=O)[C@H](CCc2ccc(C(F)(F)F)c(Cl)c2)NC(=O)CN(C)C(=O)[C@@H]1Cc1ccc(C(F)(F)F)cc1 [PP0155] ([NMeL]IG[Sar][NPrPhe(4-CF3)][Sar][hPhe(3-Cl-4-CF3)]P[Ac5c][NMeGly(cPent)][NMeD]-Morpholide; lactam N-11)
[1]; SPR
  NRAS/KRAS (ratio of KD for GDP-bound NRAS wild-type to KD for KRAS): B (a compound having 3 or more and less than 10 is denoted as B)
[2]; SPR
  HRAS/KRAS (ratio of KD for GDP-bound HRAS wild-type to KD for KRAS): C (A compound having a KD ratio of 0.1 or more and less than 3 is denoted as C)

## CCO[C@@H]1C[C@H]2C(=O)NC3(CCC3)C(=O)N(C)[C@@H](C3CCCC3)C(=O)N(C)[C@H](C)CC(=O)N(C)[C@@H](CC(C)C)C(=O)N[C@@H]([C@@H](C)CC)C(=O)N(C)CC(=O)N(C)[C@H]3C/C=C\CCN(C3=O)[C@@H](Cc3ccc(C(F)(F)F)cc3)C(=O)N(C)CC(=O)N[C@@H](CCc3cc(F)c(C(F)(F)F)c(F)c3)C(=O)N2C1 [PP1100]
[1]; SPR
  NRAS/KRAS (ratio of KD value with respect to NRAS to KD value with respect to KRAS): B (a compound having 3 or more and less than 10 is denoted as B)
[2]; SPR
  HRAS/KRAS (ratio of KD value with respect to HRAS to KD value with respect to KRAS): B (a compound having 3 or more and less than 10 is denoted as B)

## CC[C@H](C)[C@@H]1NC(=O)[C@H](C)N(C)C(=O)C[C@@H](C(=O)N(C)C)N(C)C(=O)[C@H](C2CCCC2)N(C)C(=O)C2(CCC2)NC(=O)[C@@H]2CC(F)(F)CN2C(=O)[C@H](CCc2cc(F)c(C(F)(F)F)c(F)c2)NC(=O)CN(C)C(=O)[C@H](Cc2ccc(C(F)(F)F)cc2)N2CC/C=C\C[C@@H](C2=O)N(C)C(=O)CN(C)C1=O [PP1103]
[1]; SPR
  NRAS/KRAS (ratio of KD value with respect to NRAS to KD value with respect to KRAS): A (a compound having 10 or more and less than 20 is denoted as A)
[2]; SPR
  HRAS/KRAS (ratio of KD value with respect to HRAS to KD value with respect to KRAS): B (a compound having 3 or more and less than 10 is denoted as B)

## CCCC[C@H]1C(=O)N[C@@H]([C@@H](C)CC)C(=O)N(C)CC(=O)N(C)[C@H]2C/C=C\CCN(C2=O)[C@@H](Cc2ccc(C)cc2)C(=O)N(C)CC(=O)N[C@@H](CCc2cc(F)c(C(F)(F)F)c(F)c2)C(=O)N2C[C@H](OCC)C[C@H]2C(=O)NC2(CC(C)(C)C2)C(=O)N(C)[C@@H](C2CCCC2)C(=O)N(C)[C@H](C(=O)N(C)CC)CC(=O)N1C [PP2808]
[1]; class symbols
  NRAS/KRAS (ratio of KD value with respect to GDP-bound NRAS wild-type protein to KD value with respect to KRAS): B (a compound having 3 or more and less than 10 is denoted as B)
[2]; class symbols
  HRAS/KRAS (ratio of KD value with respect to GDP-bound HRAS wild-type protein to KD value with respect to KRAS): B (a compound having 3 or more and less than 10 is denoted as B)

## CCO[C@@H]1C[C@H]2C(=O)NC3(CCC3)C(=O)N(C)[C@@H](C3CCCC3)C(=O)N(C)[C@H](C(=O)N3CCOCC3)CC(=O)N(C)[C@@H](Cc3cccs3)C(=O)N[C@@H]([C@@H](C)CC)C(=O)N(C)CC(=O)N(C)[C@H]3CCCCCN(C3=O)[C@@H](Cc3ccc(C(F)(F)F)cc3)C(=O)N(C)CC(=O)N[C@@H](CCc3cc(F)c(C(F)(F)F)c(F)c3)C(=O)N2C1 [PP1163]
[1]; SPR
  NRAS/KRAS (ratio of KD value with respect to NRAS to KD value with respect to KRAS): B (a compound having 3 or more and less than 10 is denoted as B)
[2]; SPR
  HRAS/KRAS (ratio of KD value with respect to HRAS to KD value with respect to KRAS): B (a compound having 3 or more and less than 10 is denoted as B)

## CCCN1C(=O)CN(C)C(=O)CN(C)C(=O)[C@H]([C@@H](C)CC)NC(=O)[C@H](CC(C)C)N(C)C(=O)C[C@@H](C(=O)N2CCOCC2)N(C)C(=O)[C@H](C2CCCC2)N(C)C(=O)C2(CC(F)(F)C2)NC(=O)[C@@H]2CCCN2C(=O)[C@H](CCc2cc(F)c(C(F)(F)F)c(F)c2)NC(=O)CN(C)C(=O)[C@@H]1Cc1ccc(C(F)(F)F)cc1 [PP0766] ([NMeL]I[Sar][Sar][NPrPhe(4-CF3)][Sar][hPhe(3,5-F2-4-CF3)]P[Ac4c(3,3-F2)][NMeGly(cPent)][NMeD]-Morpholide; lactam N-11)
[1]; SPR
  NRAS/KRAS (ratio of KD value with respect to GDP-bound NRAS wild-type protein to KD value with respect to KRAS): B (a compound having 3 or more and less than 10 is denoted as B)
[2]; SPR
  HRAS/KRAS (ratio of KD value with respect to GDP-bound HRAS wild-type protein to KD value with respect to KRAS): B (a compound having 3 or more and less than 10 is denoted as B)

## CC[C@H](C)[C@@H]1NC(=O)[C@H](CC(C)C)N(C)C(=O)C[C@@H](C(=O)N2CCOCC2)N(C)C(=O)[C@H](C2CCCC2)N(C)C(=O)C2(CCCC2)NC(=O)[C@@H]2CCCN2C(=O)[C@H](CCc2ccc(C(F)(F)F)c(Cl)c2)NC(=O)CN(C)C(=O)[C@H](Cc2ccc(C)cc2)N(CCC(F)(F)F)C(=O)[C@@H]2CCN2C(=O)[C@H](C)N(C)C1=O [PP0091] ([NMeL]I[NMeA][Aze][X41][Sar][hPhe(3-Cl-4-CF3)]P[Ac5c][NMeGly(cPent)][NMeD]-Morpholide; lactam N-11)
[1]; SPR
  NRAS/KRAS (ratio of KD for GDP-bound NRAS wild-type to KD for KRAS): C (A compound having a KD ratio of 0.1 or more and less than 3 is denoted as C)
[2]; SPR
  HRAS/KRAS (ratio of KD for GDP-bound HRAS wild-type to KD for KRAS): B (a compound having 3 or more and less than 10 is denoted as B)

## CCO[C@@H]1C[C@H]2C(=O)NC3(CCC3)C(=O)N(C)[C@@H](C3CCCC3)C(=O)N(C)[C@H](C(=O)N(C)C)CC(=O)N(C)[C@@H](CC3CCCC3)C(=O)N[C@@H]([C@@H](C)CC)C(=O)N(C)CC(=O)N(C)[C@H]3C/C=C\CCN(C3=O)[C@@H](Cc3ccc(C)cc3)C(=O)N(C)CC(=O)N[C@@H](CCc3cc(F)c(CC)c(OC)c3)C(=O)N2C1 [PP2674]
[1]; class symbols
  NRAS/KRAS (ratio of KD value with respect to GDP-bound NRAS wild-type protein to KD value with respect to KRAS): A (a compound having 10 or more and less than 20 is denoted as A)
[2]; class symbols
  HRAS/KRAS (ratio of KD value with respect to GDP-bound HRAS wild-type protein to KD value with respect to KRAS): A (a compound having 10 or more and less than 20 is denoted as A)
